Consider 32 compounds from patent US20250171463A1 (BIOGEN MA INC., priority 2022, published 2025).

Structures are written as SMILES. A value given as a limit tells only on which side of the number the result lay.

T1 sequence (Q15125 whole entry): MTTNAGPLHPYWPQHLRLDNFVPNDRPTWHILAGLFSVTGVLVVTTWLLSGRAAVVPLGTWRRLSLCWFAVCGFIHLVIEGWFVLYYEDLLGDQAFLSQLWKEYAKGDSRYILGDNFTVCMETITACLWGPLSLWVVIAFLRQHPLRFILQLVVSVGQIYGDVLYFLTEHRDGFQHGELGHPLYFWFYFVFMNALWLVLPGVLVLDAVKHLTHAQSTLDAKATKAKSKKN

The test concerns the target T1, EBP (Homo sapiens, UniProt Q15125).
T1 construct: HEK293T cells were utilized as the source of EBP enzyme; endogenous in cells; host or cells: HEK293T
In words: EBP Functional Assay (EBP immunoaffinity LC-MS assay). The conditions noted are these: EBP enzyme from HEK293T cells; 30 min with inhibitor, then zymosterol-d5, 37° C., 4 h; percent conversion to dehydrolathosterol-d5 by LC-APCI MRM MS. It is filed as biochemical. In a few lines: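 HEK293T cells served as EBP source; enzyme preincubated 30 min with inhibitor dilutions, then zymosterol-d5 substrate added and incubated 4 h at 37° C. Sterols extracted and quantified by LC-APCI MRM MS; percent conversion to […] fit to 4-parameter logistic for IC50. Tasin-1 reference inhibitor.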
In the case of `Cc1nc(C(F)(F)F)ccc1S(=O)(=O)N1CC2(CN(CC3CCOC(C)(C)C3)C2)C1` (centres unmarked) [Example 186], the IC50 (in general, the point on the concentration scale where inhibition reaches its midpoint) fell in the range of 100 to 250 nM.

As to `Cc1nc(C(F)(F)F)ccc1S(=O)(=O)N1CC2(CN(CC3(O)CCOCC3)C2)C1` [Example 187, 4-((6-((2-methyl-6-(trifluoromethyl)pyridin-3-yl)sulfonyl)-2,6-diazaspiro[3.3]heptan-2-yl)methyl)tetrahydro-2H-pyran-4-ol], the IC50 was in the range of 250 to 4000 nM.

For the compound `Cc1nc(C(F)(F)F)ccc1S(=O)(=O)N1CC2(CN(CC3(F)CCOCC3)C2)C1` [Example 188, 2-((4-fluorotetrahydro-2H-pyran-4-yl)methyl)-6-((2-methyl-6-(trifluoromethyl)pyridin-3-yl)sulfonyl)-2,6-diazaspiro[3.3]heptane], the IC50 was below 100 nM.

`CC(C)c1cc(S(=O)(=O)N2CC3(CN(C4CCOCC4)C3)C2)n(C)n1` [Example 189, 2-((3-isopropyl-1-methyl-1H-pyrazol-5-yl)sulfonyl)-6-(tetrahydro-2H-pyran-4-yl)-2,6-diazaspiro[3.3]heptane] came in with an IC50 below 100 nM.

For the compound `O=S(=O)(c1ccc(C(F)(F)F)nc1C1CC1)N1CC2(CN(CC3CCOCC3)C2)C1` [Example 190, 2-((2-cyclopropyl-6-(trifluoromethyl)pyridin-3-yl)sulfonyl)-6-((tetrahydro-2H-pyran-4-yl)methyl)-2,6-diazaspiro[3.3]heptane], the IC50 is below 100 nM.

Compound `Cc1nc(C2(C(F)(F)F)CC2)ccc1S(=O)(=O)N1CC2(CN(CC3CCOCC3)C2)C1` [Example 191, 2-((2-methyl-6-(1-(trifluoromethyl)cyclopropyl)pyridin-3-yl)sulfonyl)-6-((tetrahydro-2H-pyran-4-yl)methyl)-2,6-diazaspiro[3.3]heptane] showed an IC50 below 100 nM.

For the compound `O=S(=O)(c1ccc(C(F)(F)F)nc1Cl)N1CC2(CN(C3CCOCC3)C2)C1` [Example 192, 2-((2-chloro-6-(trifluoromethyl)pyridin-3-yl)sulfonyl)-6-(tetrahydro-2H-pyran-4-yl)-2,6-diazaspiro[3.3]heptane], the IC50 is below 100 nM.

In the case of `O=S(=O)(c1ccc(C(F)(F)F)nc1C1CC1)N1CC2(CN(C3CCOCC3)C2)C1` [Example 193, 2-((2-cyclopropyl-6-(trifluoromethyl)pyridin-3-yl)sulfonyl)-6-(tetrahydro-2H-pyran-4-yl)-2,6-diazaspiro[3.3]heptane], the IC50 was below 100 nM.

In turn, `Cc1cc(C(F)(F)F)ccc1S(=O)(=O)N1CC2(CN(CC3CCOCC3)C2)C1` [Example 194, 2-((2-methyl-4-(trifluoromethyl)phenyl)sulfonyl)-6-((tetrahydro-2H-pyran-4-yl)methyl)-2,6-diazaspiro[3.3]heptane] gave an IC50 below 100 nM.

As for `CC1(O)CCC(N2CC3(C2)CN(S(=O)(=O)c2ccc(C(F)(F)F)nc2C2CC2)C3)CC1` (centres unmarked) [Example 195, 4-(6-((2-cyclopropyl-6-(trifluoromethyl)pyridin-3-yl)sulfonyl)-2,6-diazaspiro[3.3]heptan-2-yl)-1-methylcyclohexan-1-ol], the IC50 is below 100 nM.

For the compound `CC1(O)CCC(N2CC3(C2)CN(S(=O)(=O)c2ccc(C(F)(F)F)nc2C2CC2)C3)CC1` (centres unmarked) [Example 196, 4-(6-((2-cyclopropyl-6-(trifluoromethyl)pyridin-3-yl)sulfonyl)-2,6-diazaspiro[3.3]heptan-2-yl)-1-methylcyclohexan-1-ol], the IC50 lay in the range of 100 to 250 nM.

The compound `O=S(=O)(c1cccnc1C(F)(F)F)N1CC2(CN(CC3CCOCC3)C2)C1` [Example 201, 2-((tetrahydro-2H-pyran-4-yl)methyl)-6-((2-(trifluoromethyl)pyridin-3-yl)sulfonyl)-2,6-diazaspiro[3.3]heptane] showed an IC50 of 250 to 4000 nM.

In the case of `Cn1nc(C(F)(F)F)cc1S(=O)(=O)N1CC2(CN(CC3CCOCC3)C2)C1` [Example 202, 2-((1-methyl-3-(trifluoromethyl)-1H-pyrazol-5-yl)sulfonyl)-6-((tetrahydro-2H-pyran-4-yl)methyl)-2,6-diazaspiro[3.3]heptane], the IC50 was below 100 nM.

In turn, `C=Cc1nc(C(F)(F)F)ccc1S(=O)(=O)N1CC2(CN(C3CCOCC3)C2)C1` [Example 203, 2-(tetrahydro-2H-pyran-4-yl)-6-((6-(trifluoromethyl)-2-vinylpyridin-3-yl)sulfonyl)-2,6-diazaspiro[3.3]heptane] gave an IC50 below 100 nM.

Turning to `CCc1nc(C(F)(F)F)ccc1S(=O)(=O)N1CC2(CN(C3CCOCC3)C2)C1` [Example 204, 2-((2-ethyl-6-(trifluoromethyl)pyridin-3-yl)sulfonyl)-6-(tetrahydro-2H-pyran-4-yl)-2,6-diazaspiro[3.3]heptane], the IC50 was below 100 nM.

`CCc1nc(C(F)F)ccc1S(=O)(=O)N1CC2(CN(C3CCOCC3)C2)C1` [Example 205, 2-((6-(difluoromethyl)-2-ethylpyridin-3-yl)sulfonyl)-6-(tetrahydro-2H-pyran-4-yl)-2,6-diazaspiro[3.3]heptane] returned an IC50 below 100 nM.

The compound `CCc1nc(C(F)F)ccc1S(=O)(=O)N1CC2(CN(C3CC4(COC4)C3)C2)C1` [Example 206, 2-((6-(difluoromethyl)-2-ethylpyridin-3-yl)sulfonyl)-6-(2-oxaspiro[3.3]heptan-6-yl)-2,6-diazaspiro[3.3]heptane] gave an IC50 of 100 to 250 nM.

For `CCc1nc(C(F)F)ccc1S(=O)(=O)N1CC2(C1)CN([C@H]1CC[C@](C)(O)CC1)C2` [Example 207, (1r,4r)-4-(6-((6-(difluoromethyl)-2-ethylpyridin-3-yl)sulfonyl)-2,6-diazaspiro[3.3]heptan-2-yl)-1-methylcyclohexan-1-ol], the IC50 lay within 250 to 4000 nM.

Compound `CCc1nc(C(F)F)ccc1S(=O)(=O)N1CC2(CN(C3CCC(C)(O)CC3)C2)C1` (centres unmarked) [Example 208, (1s,4s)-4-(6-((6-(difluoromethyl)-2-ethylpyridin-3-yl)sulfonyl)-2,6-diazaspiro[3.3]heptan-2-yl)-1-methylcyclohexan-1-ol] gave an IC50 of 100 to 250 nM.

`O=S(=O)(c1ccc(C(F)(F)F)nc1C1CC1)N1CC2(CN(CC3COC3)C2)C1` [Example 209, 2-((2-cyclopropyl-6-(trifluoromethyl)pyridin-3-yl)sulfonyl)-6-(oxetan-3-ylmethyl)-2,6-diazaspiro[3.3]heptane]: the concentration for half-maximal inhibition (IC50) is 100 to 250 nM.

`Cn1nc(C(C)(F)F)cc1S(=O)(=O)N1CC2(CN(CC3CCOCC3)C2)C1` [Example 210, 2-((3-(1,1-difluoroethyl)-1-methyl-1H-pyrazol-5-yl)sulfonyl)-6-((tetrahydro-2H-pyran-4-yl)methyl)-2,6-diazaspiro[3.3]heptane] came in with an IC50 of 100 to 250 nM.

Take `O=S(=O)(c1ccc(C(F)(F)F)cc1C(F)(F)F)N1CC2(CN(CC3CCOCC3)C2)C1` [Example 211, 2-((2,4-bis(trifluoromethyl)phenyl)sulfonyl)-6-((tetrahydro-2H-pyran-4-yl)methyl)-2,6-diazaspiro[3.3]heptane]: the IC50 was 100 to 250 nM.

`O=S(=O)(c1ccc(Cl)nc1C(F)(F)F)N1CC2(CN(C3CCOCC3)C2)C1` [Example 213, 2-((6-chloro-2-(trifluoromethyl)pyridin-3-yl)sulfonyl)-6-(tetrahydro-2H-pyran-4-yl)-2,6-diazaspiro[3.3]heptane] returned an IC50 of 100 to 250 nM.

`O=S(=O)(c1ccc(OC(F)(F)F)cc1F)N1CC2(CN(C3CCOCC3)C2)C1` [Example 214, 2-((2-fluoro-4-(trifluoromethoxy)phenyl)sulfonyl)-6-(tetrahydro-2H-pyran-4-yl)-2,6-diazaspiro[3.3]heptane]: the IC50 lay within 250 to 4000 nM.

Consider `Cc1cc(C(F)(F)F)ncc1S(=O)(=O)N1CC2(CN(CC3CCOCC3)C2)C1` [Example 217, 2-((4-methyl-6-(trifluoromethyl)pyridin-3-yl)sulfonyl)-6-((tetrahydro-2H-pyran-4-yl)methyl)-2,6-diazaspiro[3.3]heptane], for which the IC50 is below 100 nM.

On to `Cn1nc(C(F)(F)F)cc1S(=O)(=O)N1CC2(CN(CC3COC3)C2)C1` [Example 218, 2-((1-methyl-3-(trifluoromethyl)-1H-pyrazol-5-yl)sulfonyl)-6-(oxetan-3-ylmethyl)-2,6-diazaspiro[3.3]heptane], for which the IC50 was 100 to 250 nM.

`Cn1nc(C2CC2)cc1S(=O)(=O)N1CC2(CN(CC3CCOCC3)C2)C1` [Example 219, 2-((3-cyclopropyl-1-methyl-1H-pyrazol-5-yl)sulfonyl)-6-((tetrahydro-2H-pyran-4-yl)methyl)-2,6-diazaspiro[3.3]heptane] displayed an IC50 of 100 to 250 nM.

For the compound `O=S(=O)(c1ccc(OC(F)(F)F)cc1F)N1CC2(CN(CC3CCOCC3)C2)C1` [Example 220, 2-((2-fluoro-4-(trifluoromethoxy)phenyl)sulfonyl)-6-((tetrahydro-2H-pyran-4-yl)methyl)-2,6-diazaspiro[3.3]heptane], the IC50 lay within 250 to 4000 nM.

`Cc1cc(C(F)(F)F)cnc1S(=O)(=O)N1CC2(CN(C3CCOCC3)C2)C1` [Example 221, 2-((3-methyl-5-(trifluoromethyl)pyridin-2-yl)sulfonyl)-6-(tetrahydro-2H-pyran-4-yl)-2,6-diazaspiro[3.3]heptane] yielded an IC50 of 250 to 4000 nM.

For the compound `Cc1nc(C(F)(F)F)ccc1S(=O)(=O)N1CC2(CN(C3CCC(C)(O)CC3)C2)C1` (centres unmarked) [Example 222, 1-methyl-4-(6-((2-methyl-6-(trifluoromethyl)pyridin-3-yl)sulfonyl)-2,6-diazaspiro[3.3]heptan-2-yl)cyclohexan-1-ol], the IC50 was 100 to 250 nM.

The compound `Cc1nc(C(F)(F)F)ccc1S(=O)(=O)N1CC2(CN(C3CCC(C)(O)CC3)C2)C1` (centres unmarked) [Example 223, 1-methyl-4-(6-((2-methyl-6-(trifluoromethyl)pyridin-3-yl)sulfonyl)-2,6-diazaspiro[3.3]heptan-2-yl)cyclohexan-1-ol] had an IC50 of 250 to 4000 nM.

`Cc1cc(C(F)(F)F)cnc1S(=O)(=O)N1CC2(CN(CC3CCOCC3)C2)C1` [Example 224, 2-((3-methyl-5-(trifluoromethyl)pyridin-2-yl)sulfonyl)-6-((tetrahydro-2H-pyran-4-yl)methyl)-2,6-diazaspiro[3.3]heptane] registered an IC50 of 250 to 4000 nM.
